In patent US20250011347A1, “NOVEL PLASMALOGEN DERIVATIVE” (Institute of Rheological Function of Food Co., Ltd., priority 2021, published 2025):
Entries after “also recorded” stand apart in the source; their conditions may differ.

How the values were obtained:
[1] = tested on: inflammatory cytokine IL-1β; assay: LPS-induced IL-1β expression in BV2 microglial cells (semi-quantitative PCR); format: cell-based, mouse; conditions: compound 5 μg/ml 12 hours, then LPS 1 μg/ml 2 hours, FIG. 1
Description: Mouse microglial cells (BV2) were cultured using a DMEM medium containing 2% FBS (fetal bovine serum) for 12 hours under conditions with or without the addition of the compound of the present invention, KIT-008 (5 μg/ml). Thereafter, the cells were treated with LPS (1 μg/ml) for 2 hours, and intracellular RNAs were extracted with an RNA extraction kit (TRI Reagent, Molecular Research Center Inc.), and the expression of an inflammatory cytokine IL-1β and the RNA expression of the Gapdh gene as a control were detected by semi-quantitative PCR (TaKaRa PrimeScript 1st strand cDNA synthesis Kit, TAKARA BIOTECHNOLOGY Co., LTD.).

p65 (NFkB) [2] = assay: LPS-induced p65 nuclear accumulation in BV2 microglial cells (Western blotting); format: cell-based, mouse; conditions: compound 5 μg/ml 12 hours, then LPS 1 μg/ml 2 hours, FIG. 2
Description: (§1) Mouse microglial cells (BV2) were cultured using a DMEM medium containing 2% FBS (fetal bovine serum) for 12 hours under conditions with or without the addition of the compound of the present invention, KIT-008 or KIT-020 (5 μg/ml). Thereafter, it was treated with LPS (1 μg/ml) for 2 hours, proteins in the cell nucleus were extracted, and p65 (NFkB) protein expression was detected by Western blotting using NF-κB p65 (Cell Signaling Technology, the clone name: D14E12) as a primary antibody and Anti-Rabbit IgG HRP-linked antibody (Cell Signaling Technology) as a secondary antibody.

MeCP2-deficient mice = assay: Survival (lifetime) of MeCP2-deficient mice; format: in vivo, mouse; conditions: male MeCP2-deficient mice from 4 weeks old, 20 ng/g body weight in drinking water twice a week
Description: Four-week-old male MeCP2-deficient mice were used in the experiment. The MeCP2-deficient mice were divided into two groups: a KIT-008 administration group (KO-KIT-008, n=13) and a control group (KO-All, n=28). The body weight of each of the mice in the administration group was measured in advance. The compound KIT-008 was suspended in water by sonication so that KIT-008 was ingested at 20 ng/g body weight, and it was continuously administered in drinking water to each mouse twice a week to verify its survival. The control group was given only water in the same manner.

[3] = tested on: lysosomes in mouse neurons Neuro2a (N2a); assay: Impaired lysosomal acidification in Neuro2a neurons induced by culture supernatant of LPS-treated BV2; format: cell-based; conditions: N2a cells, compound 24 hours, then 24 hours in supernatant of LPS-treated BV2 with compound; LysoTracker Red; FIG. 10
Description: Lysosomes in mouse neurons Neuro2a (N2a) cultured in a normal DMEM medium were labeled with LysoPrime Green (Dojindo). LysoPrime Green is a fluorescent dye that is highly specific for lysosomes which are acidic organelles and that is resistant to pH changes.
Then, N2a is cultured in the culture supernatant of mouse glial cells BV2 treated with the endotoxin lipopolysaccharide (LPS) (1 μg/ml, 18 h) or the culture supernatant of untreated BV2, and labeled with LysoTracker™ Red DND-99 (Thermo Fisher Scientific) which targets acidic organelles.
That is, it was shown that acidification of the lysosomes in the neurons were impaired by glial cell-derived factors in the medium resulting from inflammation.
Each of the compounds of the present invention, KIT-008, KIT-019 and KIT-020 was added to the medium of N2a cells and cultured for 24 hours, and then cultured for another 24 hours in the culture supernatant of BV2 administered with LPS in the presence of each compound.

[4] = tested on: amyloid beta (Aβ) in N2a cells; assay: Amyloid beta (Aβ) accumulation in lysosomes of CFPAPPsw-expressing N2a cells; format: cell-based, mouse; conditions: N2a cells expressing CFPAPPsw in LPS-treated BV2-derived medium, pretreatment with compound; antibody 6E10; FIG. 11
Text: A plasmid having cDNA encoding CFPAPPsw (CFPAPPsw that fuses a fluorescent protein CFP to the N-terminus of an amyloid precursor protein (APPsw) having a Swedish-type amino acid substitution that is easily cleaved by BACE) was expressed in N2a cells, and localization of amyloid beta (Aβ) in the N2a cells in an untreated mouse glial cell BV2 culture supernatant (−LPS), in the N2a cells in LPS-treated BV2 culture supernatant (LPS-treated BV2-derived medium), and in the N2a cells administered with KIT-008 was verified using an antibody 6E10 (BioLegend) that recognizes the Aβ portion.

c57BL6J mice = assay: Water maze test of mice with LPS-induced memory impairment; format: in vivo, mouse; conditions: 10 mg/50 kg/day in drinking water 4 weeks, then LPS 7 days, Trial 6, P<0.05, FIG. 12
Description: Specifically, 8-week-old male c57BL6J mice (5 mice in each group, n=5) were allowed to drink each of the compounds of the present invention (KIT-008 and KIT-020) at a dose of 10 mg/50 kg/day for 4 weeks, and were then subjected to LPS treatment (200 mg/kg/day) for 7 days while allowing them to drink the compound in the same manner. Thereafter, they were subjected to a water maze test for 2 days (3 trials per day).
Escape Latency indicates the time required to arrive at an escape platform (arrival time). Comparisons between groups were performed by ANOVA test and Bonferroni's post hoc test. […] Therefore, the compounds of the present invention are effective in improving brain function (cognitive function).

[5] = tested on: amyloid beta (Aβ) deposition in hippocampal tissue; assay: LPS-induced amyloid beta (Aβ) deposition in mouse hippocampal tissue (immunohistochemistry); format: in vivo; conditions: c57BL6J mice hippocampal tissue, 10 mg/50 kg/day in drinking water 4 weeks, then LPS 10 days; FIG. 13, 14
Description: Specifically, 8-week-old male c57BL6J mice were allowed to drink each of the compounds of the present invention (KIT-008 and KIT-020) at a dose of 10 mg/50 kg/day for 4 weeks, and were then subjected to LPS treatment (200 mg/kg/day) for 10 days while allowing them to drink the compound in the same manner. The mouse hippocampal tissue was subjected to an immunohistochemistry test using an anti-amyloid beta antibody (a cocktail of two antibodies, 6E10 (BioLegend) and 82E1 (Immuno-Biological Laboratories Co, Ltd)). DAPI was used to stain a cell nucleus. In FIG. 13, the scale bar is 100 μm and the arrows indicate amyloid beta that deposited. The data in FIG. 14 represent the average number of amyloid beta deposition in each group (3 mice, n=3). In the LPS group, amyloid beta deposition was observed compared to the control group, but in the KIT-008 group and the KIT-020 group, amyloid beta deposition caused by LPS was suppressed.

[6] = tested on: inducible nitric oxide synthase (iNOS); assay: LPS-induced iNOS expression in mouse hippocampal tissue (immunohistochemistry); format: in vivo; conditions: c57BL6J mice hippocampal tissue, 10 mg/50 kg/day in drinking water 4 weeks, then LPS 10 days; FIG. 15, 16
Description: Specifically, 8-week-old male c57BL6J mice were allowed to drink each of the compounds of the present invention (KIT-008 and KIT-020) at a dose of 10 mg/50 kg/day for 4 weeks, and were then subjected to LPS treatment (200 mg/kg/day) for 10 days while allowing them to drink the compound in the same manner. The mouse brain tissue was subjected to an immunohistochemistry (IHC) study using an anti-NeuN antibody (a neuron marker, Millipore MAB377) and an anti-iNOS antibody (an inflammatory marker, Invitrogen PA1-036). DAPI was used to stain a cell nucleus.
In FIG. 15, the scale bar is 50 μm and the arrows indicate iNOS-positive neurons. The data in FIG. 16 represents the average value for each group (3 mice, n=3). In the LPS group, the number of iNOS-positive neurons increased compared to that in the control group, but in the KIT-008 group and the KIT-020 group, the increase in iNOS-positive neurons caused by LPS was suppressed.

[7] = tested on: microglia (Iba1-positive cells) and astrocytes (GFAP-positive cells) in hippocampal tissue; assay: LPS-induced amoeboid shaped microglia and astrocytes increase in mouse hippocampal tissue (immunohistochemistry); format: in vivo; conditions: c57BL6J mice hippocampal tissue, 10 mg/50 kg/day in drinking water 4 weeks, then LPS 10 days; for LPS-induced amoeboid shaped astrocytes (GFAP-positive cells) increase / LPS-induced amoeboid shaped microglia (Iba1-positive cells) increase: FIG. 17, 18; for LPS-induced astrocytes (GFAP-positive cells) increase (number): FIG. 18 lower graph
Description: Specifically, 8-week-old male c57BL6J mice were allowed to drink each of the compounds of the present invention (KIT-008 and KIT-020) at a dose of 10 mg/50 kg/day for 4 weeks, and were then subjected to LPS treatment (200 mg/kg/day) for 10 days while allowing them to drink the compound in the same manner. The mouse brain tissue was subjected to an immunohistochemistry (IHC) study using Iba1 (a microglia marker, Fujifilm 019-19741) and GFAP (an astrocyte marker, Sigma C9205). DAPI was used to stain a cell nucleus. In FIG. 17, the scale bar is 100 μm. The data in FIG. 18 represent the percentages of amoeboid shaped microglia and amoeboid shaped astrocytes (upper graphs) and the number of astrocytes (GFAP-positive cells) (a lower graph) in each group (3 mice, n=3). In the LPS group, the amoeboid shaped microglia (Iba1-positive cells) and the amoeboid shaped astrocytes (GFAP-positive cells) increased compared to the control group. In addition, the astrocytes (GFAP-positive cells) increased. However, in the KIT-008 group and the KIT-020 group, the LPS-induced amoeboid shaped microglia (Iba1-positive cells) increase and amoeboid shaped astrocytes (GFAP-positive cells) increase and astrocytes (GFAP-positive cells) increase were suppressed.

p65 (NFkB) [8] = assay: LPS-induced p65 nuclear accumulation in MG6 microglial cells (Western blotting); format: cell-based, mouse; conditions: compound 5 μg/ml 24 hours, then LPS 1 μg/ml 8 hours, FIG. 3
Description: as §1, with “cells (MG6)” for “cells (BV2)”, “for 24” for “for 12”, “invention, KIT-019” for “invention, KIT-008”, “for 8” for “for 2”

IL-1β protein = assay: LPS-induced secreted IL-1β protein in MG6 microglial cells (ELISA); format: cell-based, mouse; conditions: compound 5 μg/ml 24 hours, then LPS 1 μg/ml 8 hours, ELISA of culture medium, FIG. 4
Description: Five-thousand mouse microglial cells (MG6) were cultured in a 96-well dish containing 100 μl of a DMEM medium containing 2% FBS (fetal bovine serum). Then, 5 μg/ml of each of the compounds of the present invention, KIT-019 and KIT-020 was added and cultured for 24 hours. Thereafter, it was treated with LPS (1 μg/ml) for 8 hours. The culture medium was collected, and the secreted IL-1β protein was measured by ELISA using DuoSet Mouse IL-1β (R&D Systems).

SMILES | LPS-induced inflammatory cytokine IL-1β expression [1] | LPS-induced p65 nuclear accumulation (p65 (NFkB) [2]) | survival rate compared with MeCP2-deficient mice not administered (MeCP2-deficient mice; FIG. 5) | number of days until the survival rate reached 50% (MeCP2-deficient mice; control group 64.5 days) [days] | impaired acidification of lysosomes in neurons caused by glial cell-derived factors [3] | accumulation of Aβ in lysosomes [4] | memory retention (Escape Latency) compared to the LPS group (c57BL6J mice) | amyloid beta deposition caused by LPS [5] | increase in iNOS-positive neurons caused by LPS [6] | LPS-induced amoeboid shaped astrocytes (GFAP-positive cells) increase [7] | LPS-induced amoeboid shaped microglia (Iba1-positive cells) increase [7] | LPS-induced astrocytes (GFAP-positive cells) increase (number) [7] | LPS-induced p65 nuclear accumulation (p65 (NFkB) [8]) | LPS-induced inflammatory cytokine IL-1β protein expression (IL-1β protein)
CC/C=C\C/C=C\C/C=C\C/C=C\C/C=C\C/C=C\CCC(=O)O[C@H](COC/C=C/CCCCCCCCCCCCCCC)COP(=O)(O)OCCN [KIT-008, 2-((((R)-2-(((4Z,7Z,10Z,13Z,16Z,19Z)-docosa-4,7,10,13,16,19-hexenoyl)oxy)-3-(((E)-octadec-2-en-1-yl)oxy)propoxy)(hydroxy)phosphoryl)oxy)ethane-1-ammonium 2,2,2-trifluoroacetate] | reduced | suppressed | higher | 78 | ameliorated; also recorded: highest effect | eliminated | improvement in memory retention | suppressed | suppressed | suppressed | suppressed | suppressed | – | –
CCCCCCCC/C=C\CCCCCCCC(=O)O[C@H](COC/C=C/CCCCCCCCCCCCCCC)COP(=O)(O)OCCN [KIT-019, 2-((hydroxy((R)-3-3-(((E)-octadec-2-en-1-yl)oxy)-2-(oleoyloxy)propyl)phosphoryl)oxy)ethane-1-ammonium 2,2,2-trifluoroacetate] | – | – | – | – | ameliorated | – | – | – | – | – | – | – | significantly suppressed | significantly reduced
CCCCC/C=C\C/C=C\C/C=C\C/C=C\CCCC(=O)O[C@H](COC/C=C/CCCCCCCCCCCCCCC)COP(=O)(O)OCCN [KIT-020, 2-((hydroxy((R)-2-(((5Z,8Z,11Z,14Z)-icosa-5,8,11,14-tetraenoyl)oxy)-3-(((E)-octadec-2-en-1-yl)oxy)propoxy)phosphoryl)oxy)ethane-1-ammonium 2,2,2-trifluoroacetate] | – | significantly suppressed | – | – | ameliorated | – | improvement in memory retention | suppressed | suppressed | suppressed | suppressed | suppressed | significantly suppressed | significantly reduced
